In patent EP0497314A1, “Use of azapirones in attention deficit hyperactivity disorder” (Bristol-Myers Squibb Company, priority 1991, dated 1992):
Marks after values point to notes of the source that are not given here.

How the values were obtained:
[1] = test system: fronto-occipital cortex of the cat; assay: Quantitative EEG, fronto-occipital cat cortex, subcutaneous administration; type: in vivo, cats; conditions: in vivo
Excerpt: This unique combination of activity may render buspirone useful in the treatment of childhood hyperkinesis which has been reported to respond to both selected phenothiazine and stimulant drugs. • (b) Adult mongrel female cats weighing 2.5-4.0 kg were implanted with EEG recording electrodes. Recording sites were as follows: fronto-occipital cortex, basal amygdala and ventral hippocampus.
Animals were individually held in canvas feline restraining bags for EEG recording. The EEG of each brain area was recorded on a separate channel. The instrumentation filtered each channel of EEG and analog data into five distinct frequency bands: Δ=0.5-3.5 Hz, ϑ=3.5-7.0 Hz, α=7-13 Hz, β=13-25 Hz and γ=25-40 Hz. The EEG analyzer then integrated the filtered waveforms and sent pulses to an associated computer at a rate proportional to the electrical energy of each band. Data collecting procedures were essentially the same as reported in Example 1. However, groups of six animals each were used and all drugs were administered subcutaneously in saline solution as their respective salts, but all dosages were calculated as the free base. Recording was started 30 minutes after injection to insure adequate drug absorption for peak activity.
Drug-induced EEG changes were determined by comparing the post-treatment data to the pre-treatment control in the same animal. Statistical analysis was performed on change from control, in instrument counts, using multiple Student-t-paired-comparison test with P≦0.05 (Table 2). However, for clarity data are also presented as percent change from control (Figures 3, 4 and 5).
The data in Table 2 are drug-induced changes resulting from the minimum and higher doses of each compound required to elicit the EEG profile characteristic of that particular drug.

[2] = test system: rabbit cortex; assay: Quantitative EEG, rabbit cortex, intravenous administration; type: in vivo, rabbits; conditions: rabbit, in vivo
Experimental: At least 2 weeks were allowed for recovery before beginning experimentation.
Groups of four animals each were individually restrained and connected to an EEG amplifier and frequency analyzer. The EEG of each animal was recorded on a separate channel. The instrumentation filtered each channel of EEG analog data into five distinct frequency bands: Δ=0.5-3.5 Hz, ϑ=3.5-7.0 Hz, α=7-13 Hz, β=13-25 Hz and γ=25-40 Hz. The EEG analyzer then integrated the filtered waveforms and sent pulses to an associated computer at a rate proportional to the electrical energy of each band. Thus, one computer print-out provided a cortical EEG profile for the entire group of four rabbits.
Data from a one-hour recording period were collected in four 15-minute periods, which provided additional information concerning both onset and time of peak effect of drug activity. However, in this report only the mean activity of the four data collection periods was considered since onset of drug activity was immediate and duration of action was at least one hour for all drugs studied. Drug-induced EEG changes were determined by comparing the post-treatment print-out to the pretreatment control in the same animal and statistical analysis was performed on change from control, in counts, using multiple Student-t paired-comparison tests with p≦0.05 (Table 1). However, for clarity data are also presented as percent change from control (Figures 1 and 2).
All drugs were administered intravenously in saline solution as their respective salts and all dosage calculations were based on the free base. Recording was started immediately after injection and animals were not used more often than once per week. Initial doses were reduced geometrically until a no-effect dose was determined for each drug. However, only the "no-effect" data and the data generated from the next higher dose are presented in this report since the shape of the EEG profile is not dose-related, as opposed to the magnitude of the response which is dose-related.

## C[C@H](N)Cc1ccccc1 [Dextroamphetamine 1/2H2SO4, dextroamphetamine]
[1]
  the minimum dose required to produce the EEG profile characteristic of that particular drug: 0.125‡ mg/kg, s.c.
  the no-effect dose: 0.0625† mg/kg, s.c.
[1]; sc
  relative potency by comparing minimal doses required to elicit EEG profiles: approximately twice as potent as buspirone and methylphenidate
[1]; sc, 0.0625 mg/kg
  group percent change in electrical energy from pre-drug control, Δ band: -18 ± 6 (-8) percent
  group percent change in electrical energy from pre-drug control, α band: -12 ± 8 (-8) percent
  group percent change in electrical energy from pre-drug control, β band: +1 ± 5 (+1) percent
  group percent change in electrical energy from pre-drug control, γ band: +2 ± 3 (+2) percent
  group percent change in electrical energy from pre-drug control, θ band: -15 ± 7 (-10) percent
  mean change ± S.E. in electrical energy from pre-drug control, Δ band: -18 ± 6 (-8) instrument counts
  mean change ± S.E. in electrical energy from pre-drug control, α band: -12 ± 8 (-8) instrument counts
  mean change ± S.E. in electrical energy from pre-drug control, β band: +1 ± 5 (+1) instrument counts
  mean change ± S.E. in electrical energy from pre-drug control, γ band: +2 ± 3 (+2) instrument counts
  mean change ± S.E. in electrical energy from pre-drug control, θ band: -15 ± 7 (-10) instrument counts
[1]; sc, 0.125 mg/kg
  group percent change in electrical energy from pre-drug control, Δ band: -85 ± 21 (-35) percent
  group percent change in electrical energy from pre-drug control, α band: -29 ± 9 (-26) percent
  group percent change in electrical energy from pre-drug control, β band: -3 ± 4 (-3) percent
  group percent change in electrical energy from pre-drug control, γ band: +8 ± 2 (+12) percent
  group percent change in electrical energy from pre-drug control, θ band: -44 ± 8 (-33) percent
  mean change ± S.E. in electrical energy from pre-drug control, Δ band: -85 ± 21 (-35) instrument counts
  mean change ± S.E. in electrical energy from pre-drug control, α band: -29 ± 9 (-26) instrument counts
  mean change ± S.E. in electrical energy from pre-drug control, β band: -3 ± 4 (-3) instrument counts
  mean change ± S.E. in electrical energy from pre-drug control, γ band: +8 ± 2 (+12) instrument counts
  mean change ± S.E. in electrical energy from pre-drug control, θ band: -44 ± 8 (-33) instrument counts
[1]; sc, 0.5 mg/kg
  group percent change in electrical energy from pre-drug control, Δ band: -78 ± 32 (-33) percent
  group percent change in electrical energy from pre-drug control, α band: -71 ± 11 (-51) percent
  group percent change in electrical energy from pre-drug control, β band: -18 ± 9 (-15) percent
  group percent change in electrical energy from pre-drug control, γ band: +18 ± 4 (+25) percent
  group percent change in electrical energy from pre-drug control, θ band: -76 ± 13 (-51) percent
  mean change ± S.E. in electrical energy from pre-drug control, Δ band: -78 ± 32 (-33) instrument counts
  mean change ± S.E. in electrical energy from pre-drug control, α band: -71 ± 11 (-51) instrument counts
  mean change ± S.E. in electrical energy from pre-drug control, β band: -18 ± 9 (-15) instrument counts
  mean change ± S.E. in electrical energy from pre-drug control, γ band: +18 ± 4 (+25) instrument counts
  mean change ± S.E. in electrical energy from pre-drug control, θ band: -76 ± 13 (-51) instrument counts
[1]; sc, 4 mg/kg
  group percent change in electrical energy from pre-drug control, Δ band: +64 ± 27 (+29) percent
  group percent change in electrical energy from pre-drug control, α band: -44 ± 13 (-35) percent
  group percent change in electrical energy from pre-drug control, β band: -6 ± 9 (-5) percent
  group percent change in electrical energy from pre-drug control, γ band: +50 ± 8 (+63) percent
  group percent change in electrical energy from pre-drug control, θ band: -34 ± 13 (-24) percent
  mean change ± S.E. in electrical energy from pre-drug control, Δ band: +64 ± 27 (+29) instrument counts
  mean change ± S.E. in electrical energy from pre-drug control, α band: -44 ± 13 (-35) instrument counts
  mean change ± S.E. in electrical energy from pre-drug control, β band: -6 ± 9 (-5) instrument counts
  mean change ± S.E. in electrical energy from pre-drug control, γ band: +50 ± 8 (+63) instrument counts
  mean change ± S.E. in electrical energy from pre-drug control, θ band: -34 ± 13 (-24) instrument counts
[2]
  the minimum dose required to produce the EEG profile characteristic of that particular drug: 0.25‡ mg/kg, i.v.
  the no-effect dose: 0.125† mg/kg, i.v.
[2]; iv
  relative potency by comparing minimal doses required to elicit EEG profiles: approximately twice as potent as buspirone
[2]; iv, 0.125 mg/kg
  group percent change in electrical energy from pre-drug control, Δ band: +4 ± 17 (+2) percent
  group percent change in electrical energy from pre-drug control, α band: 0 ± 9 (0) percent
  group percent change in electrical energy from pre-drug control, β band: +2 ± 6 (+1) percent
  group percent change in electrical energy from pre-drug control, γ band: +1 ± 1 (+1) percent
  group percent change in electrical energy from pre-drug control, θ band: -9 ± 6 (-5) percent
  mean change ± S.E. in electrical energy from pre-drug control, Δ band: +4 ± 17 (+2) instrument counts
  mean change ± S.E. in electrical energy from pre-drug control, α band: 0 ± 9 (0) instrument counts
  mean change ± S.E. in electrical energy from pre-drug control, β band: +2 ± 6 (+1) instrument counts
  mean change ± S.E. in electrical energy from pre-drug control, γ band: +1 ± 1 (+1) instrument counts
  mean change ± S.E. in electrical energy from pre-drug control, θ band: -9 ± 6 (-5) instrument counts
[2]; iv, 0.25 mg/kg
  group percent change in electrical energy from pre-drug control, α band: +27 ± 9 (-22) percent
  group percent change in electrical energy from pre-drug control, β band: -21 ± 6 (-20) percent
  group percent change in electrical energy from pre-drug control, γ band: -4 ± 1 (-5) percent
  group percent change in electrical energy from pre-drug control, θ band: -35 ± 9 (-25) percent
  mean change ± S.E. in electrical energy from pre-drug control, Δ band: -64 ± 19 (-33) instrument counts
  mean change ± S.E. in electrical energy from pre-drug control, β band: -21 ± 6 (-20) instrument counts
  mean change ± S.E. in electrical energy from pre-drug control, γ band: -4 ± 1 (-5) instrument counts
  mean change ± S.E. in electrical energy from pre-drug control, θ band: -35 ± 9 (-25) instrument counts
